Experimental data reported in patent US7718764B2, “Biologically active peptide [sequence] derivatives” (CMS Peptides Patent Holding Company Limited, priority 2004, dated 2010).

Tests used:
mice T-lymphocyte = assay: Mice T-lymphocyte transformation induced by ConA in vitro (spleen cells, MTT); type: cell-based, BALB/c mice; settings: for OD: Table 2, ConA 5 μg/ml, 68 hrs
Experimental: The spleens from healthy mice were isolated aseptically and manually dispersed in 10% FBS RPMI-1640 solution using an injection needle. The dispersed cell suspension was further sieved through a 100-gauge 150 μm diameter stainless steel sieve. The spleen cell suspension was adjusted to a density of 4×10^6/ml and was aliquoted onto 96-well cell culture plates at 100 μl/well. Peptides were dissolved in plain RPMI-1640. The design of the groupings was as given below.
Peptide group: 100 μl working peptide solution+75 μl spleen cell suspension+25 μl ConA working solution.
ConA control group: 100 μl RPMI-1640+75 μl spleen cell suspension+25 μl ConA working solution.
Negative control group: 125 μl RPMI-1640+75 μl spleen cell suspension.
The final concentration of ConA in the well was 5 μg/ml. The final concentrations of peptides in the well were 80 μg/ml, 16 μg/ml, 3.2 μg/ml, 0.64 μg/ml, and 0.128 μg/ml. Each peptide group contained three parallel wells, and eight or twelve wells for the control groups. The cells were incubated for 68 hrs at 37° C., 5% CO2. MTT method was used to obtain a reading of OD570 nm of each well referenced at 630 nm on an ELISA reader.

Masugi nephritis rabbits [1] = assay: Masugi nephritis in rabbits: urine protein; type: in vivo; settings: 0.1 mg/kg/day i.v.
Experimental: (§1) Twenty-two healthy rabbits were randomized into 5 groups: peptide (107.3 μg/kg/day and 58.5 μg/kg/day, 4 rabbits per group), dexamethasone (0.1 mg/kg/day, 4 rabbits), saline treatment (1 ml/day, 7 rabbits), and normal healthy (3 rabbits). Before the establishment of a disease state in the rabbits, measurements of serum BUN, creatinine, and urine protein over 24 hours were taken for each rabbit. If there was no abnormality in these measurements, the Masugi nephritis model was established in experimental rabbits by intravenous injection of sheep anti-rabbit renal cortex antiserum via the auricular vein, 0.5 ml per injection, one injection every 30 minutes, for a total of 4 injections per rabbit. The normal healthy (control) rabbit group was injected with saline in the same manner. Intravenous administration of the test substances via the auricular vein was started on the day after the injection of the antiserum, once per day, 1 ml per injection, for 30 consecutive days.
Urine was collected from each rabbit over a 24 hour period once per week and the protein content determined by the sulfosalicylic acid method.
(§2) Statistical significance was determined by the t-test of the SPSS software.

Masugi nephritis rabbits [2] = assay: Masugi nephritis in rabbits: clearance of sheep anti-rabbit renal cortex IgG antibody (glomerular immunofluorescence); type: in vivo; settings: 0.1 mg/kg/day i.v. 30 days, saline treatment 8.7 ± 0.9
Experimental: as §1, with “Before” for “Twenty-two healthy rabbits were randomized into 5 groups: peptide (107.3 μg/kg/day and 58.5 μg/kg/day, 4 rabbits per group), dexamethasone (0.1 mg/kg/day, 4 rabbits), saline treatment (1 ml/day, 7 rabbits), and normal healthy (3 rabbits). Before”
For observation of the effects of peptides on the clearance of sheep anti-rabbit renal cortex IgG antibody from Masugi nephritis rabbits, on the day after the last test substance administration, the rabbits were sacrificed by suffocation and the right kidney was extirpated, freeze-edged and then immunofluorescently stained for the presence of sheep IgG. The fluorescence-positive area of each glomerulus was counted. Thirty glomeruli per rabbit were examined and the average positive area per glomerulus was calculated.
as §2

Substance | OD (mice T-lymphocyte; peptide 0.64 μg/ml, ConA control 0.467 ± 0.043) | OD (mice T-lymphocyte; peptide 80 μg/ml, MTT OD570 nm ref 630 nm, ConA control 0.467 ± 0.043, negative control 0.134 ± 0.011) | Effect on mice T-lymphocyte transformation induced by ConA in vitro (mice T-lymphocyte; at suitable concentrations, vs ConA positive control P<0.05) | proteinuria Week 0 (Masugi nephritis rabbits [1]; Week 0, saline treatment 11.72 ± 3.18) | proteinuria Week 1 (Masugi nephritis rabbits [1]; Week 1, saline treatment 122 ± 91) | proteinuria Week 2 (Masugi nephritis rabbits [1]; Week 2, saline treatment 160 ± 138) | proteinuria Week 3 (Masugi nephritis rabbits [1]; Week 3, saline treatment 145 ± 33) | proteinuria Week 4 (Masugi nephritis rabbits [1]; Week 4, saline treatment 157 ± 71) | Positive area count/glomerulus (Masugi nephritis rabbits [2])
VANPK [CMS-010.105] | 0.386 ± 0.008 | 0.407 ± 0.019 | suppress |  |  |  |  |  | 
Dexamethasone Sodium Phosphate [reference compound] |  |  |  | 9.48 ± 8.46 mg/dL | 29 ± 12 mg/dL | 13.6 ± 6.3 mg/dL | 13.7 ± 3.1 mg/dL | 25 ± 19 mg/dL | 7.5 ± 1.0
